According to patent publication US8119683B2, “Aryl substituted sulfonamide compounds and their use as anticancer agents” (Taipei Medical University, priority 2009, dated 2012):

Tests used:
[1] = test system: Human oral epidermoid carcinoma KB cells; test: Cell growth inhibition assay (methylene blue dye), KB cells; format: cell-based; conditions: KB cells, bands, read-out: IC50, inhibiting proliferation of KB cells (band)
Protocol: Anticancer activities of the aryl substituted sulfonamide compounds synthesized in the above examples were evaluated by testing their inhibitory effects on mammalian cancer cell growth.
Human oral epidermoid carcinoma KB cells, non small cell lung carcinoma H460 cells, colorectal carcinoma HT29 cells, and stomach carcinoma MKN45 cells were maintained in RPMI-1640 medium supplied with 5% fetal bovine serum. The cells were treated with the test compound at various concentrations for 72 h.

| Structure (SMILES) | melting point [°C] | IC50 [1] [nM] |
| --- | --- | --- |
| COc1ccc(S(=O)(=O)n2ccc3ccnc(Nc4ccccc4)c32)cc1 [Compound 1, [1-(4-methoxy-benzenesulfonyl)-1H-pyrrolo[2,3-c]pyridin-7-yl]-phenyl-amine] | 138.5 to 139.7 |  |
| COc1ccc(S(=O)(=O)n2ccc3ccnc(N(C)C)c32)cc1 [Compound 3, [1-(4-methoxy-benzenesulfonyl)-1H-pyrrolo[2,3-c]pyridin-7-yl]-dimethyl-amine] | 154.8 to 157.5 |  |
| COc1ccc(Nc2nccc3ccn(S(=O)(=O)c4ccc(OC)cc4)c23)cc1 [Compound 4, [1-(4-methoxy-benzenesulfonyl)-1H-pyrrolo[2,3-c]pyridin-7-yl]-(4-methoxy-phenyl)-amine] | 155.5 to 158.3 |  |
| COc1ccc(S(=O)(=O)n2ccc3ccnc(Nc4ccc(F)cc4)c32)cc1 [Compound 5, (4-fluoro-phenyl)-[1-(4-methoxy-benzenesulfonyl)-1H-pyrrolo[2,3-c]pyridin-7-yl]-amine] | 125.1 to 127.1 |  |
| COc1ccc(S(=O)(=O)n2ccc3ccnc(-c4ccccc4)c32)cc1 [Compound 6, 1-(4-methoxy-benzenesulfonyl)-7-phenyl-1H-pyrrolo[2,3-c]pyridine] | 148.9 to 151 |  |
| COC(=O)c1ccc(-c2nccc3ccn(S(=O)(=O)c4ccc(OC)cc4)c23)cc1 [Compound 7, 4-[1-(4-methoxy-benzenesulfonyl)-1H-pyrrolo[2,3-c]pyridin-7-yl]-benzoic acid methyl ester] | 143.5 to 146.5 |  |
| COc1ccc(S(=O)(=O)n2ccc3ccnc(-c4ccc(F)cc4)c32)cc1 [Compound 8, 7-(4-fluoro-phenyl)-1-(4-methoxy-benzenesulfonyl)-1H-pyrrolo[2,3-c]pyridine] | 136 to 137 |  |
| COc1ccc(S(=O)(=O)n2ccc3ccnc(-c4ccc(Cl)cc4)c32)cc1 [Compound 9, 7-(4-chloro-phenyl)-1-(4-methoxy-benzenesulfonyl)-1H-pyrrolo[2,3-c]pyridine] | 125.5 to 128.5 |  |
| COc1ccc(S(=O)(=O)n2ccc3ccnc(-c4ccc(O)cc4)c32)cc1 [Compound 10, 4-[1-(4-methoxy-benzenesulfonyl)-1H-pyrrolo[2,3-c]pyridin-7-yl]-phenol] | 179 to 182 |  |
| COc1ccc(-c2nccc3ccn(S(=O)(=O)c4ccc(OC)cc4)c23)cc1 [Compound 11, 1-(4-methoxy-benzenesulfonyl)-7-(4-methoxy-phenyl)-1H-pyrrolo[2,3-c]pyridine] | 162.8 to 164.8 |  |
| COc1ccc(S(=O)(=O)n2ccc3ccnc(-c4ccc(N(C)C)cc4)c32)cc1 [Compound 12, {4-[1-(4-methoxy-benzenesulfonyl)-1H-pyrrolo[2,3-c]pyridin-7-yl]-phenyl}-dimethyl-amine] | 111.5 to 114.5 |  |
| COc1ccc(S(=O)(=O)n2ccc3ccnc(-c4ccncc4)c32)cc1 [Compound 13, 1-(4-methoxy-benzenesulfonyl)-7-pyridin-4-yl-1H-pyrrolo[2,3-c]pyridine] | 193.1 to 194.3 |  |
| COc1ccc(S(=O)(=O)n2ccc3ccnc(-c4ccc([N+](=O)[O-])cc4)c32)cc1 [Compound 14, 1-(4-methoxy-benzenesulfonyl)-7-(4-nitro-phenyl)-1H-pyrrolo[2,3-c]pyridine] | 177.5 to 178.8 |  |
| COc1ccc(S(=O)(=O)n2ccc3ccnc(-c4ccc(C(F)(F)F)cc4)c32)cc1 [Compound 15, 1-(4-methoxy-benzenesulfonyl)-7-(4-trifluoromethyl-phenyl)-1H-pyrrolo[2,3-c]pyridine] | 143.1 to 144.9 |  |
| COc1ccc(S(=O)(=O)n2ccc3ccnc(-c4ccco4)c32)cc1 [Compound 16, 7-furan-2-yl-1-(4-methoxy-benzenesulfonyl)-1H-pyrrolo[2,3-c]pyridine] | 127.1 to 130.3 |  |
| COc1ccc(S(=O)(=O)n2ccc3cccc(-c4ccc(C#N)cc4)c32)cc1 [Compound 18, 4-[1-(4-methoxy-benzenesulfonyl)-1H-indol-7-yl]-benzonitrile] | 164.3 to 165.7 |  |
| COc1ccc(S(=O)(=O)n2ccc3cccc(-c4ccc(F)cc4)c32)cc1 [Compound 19, 7-(4-fluoro-phenyl)-1-(4-methoxy-benzenesulfonyl)-1H-indole] | 181.2 to 182.4 |  |

Other lines, results leading:

| melting point [°C] | IC50 [1] [nM] | Structure (SMILES) |
| --- | --- | --- |
| 183.9 to 185.6 | 100 to 700 | COc1ccc(S(=O)(=O)N2CCc3cccc(-c4ccc(N)cc4)c32)cc1 [Compound 20, 4-[1-(4-methoxy-benzenesulfonyl)-2,3-dihydro-1H-indol-7-yl]-phenylamine] |
| 180.2 to 181.4 | 1 to 99 | COc1ccc(S(=O)(=O)N2CCc3cccc(-c4ccc(F)c(F)c4)c32)cc1 [Compound 21, 7-(3,4-difluoro-phenyl)-1-(4-methoxy-benzenesulfonyl)-2,3-dihydro-1H-indole] |
| 176.3 to 177.4 | 100 to 700 | COc1ccc(-c2cccc3c2N(S(=O)(=O)c2ccc(OC)cc2)CC3)cc1 [Compound 23, 1-(4-methoxy-benzenesulfonyl)-7-(4-methoxy-phenyl)-2,3-dihydro-1H-indole] |
| 139.8 to 141.7 | 100 to 700 | COc1ccc(S(=O)(=O)N2CCc3cccc(-c4ccc(F)nc4)c32)cc1 [Compound 25, 7-(6-fluoro-pyridin-3-yl)-1-(4-methoxy-benzenesulfonyl)-2,3-dihydro-1H-indole] |
| 179.4 to 180.5 | 100 to 700 | COc1ccc(S(=O)(=O)N2CCc3cccc(-c4ccc(O)cc4)c32)cc1 [Compound 26, 4-[1-(4-methoxy-benzenesulfonyl)-2,3-dihydro-1H-indol-7-yl]-phenol] |
| 178.1 to 179.4 | 1 to 99 | COc1ccc(S(=O)(=O)N2CCc3cccc(-c4ccc(F)cc4)c32)cc1 [Compound 28, 7-(4-fluoro-phenyl)-1-(4-methoxy-benzenesulfonyl)-2,3-dihydro-1H-indole] |
| 176.7 to 177.7 | 1 to 99 | COc1ccc(S(=O)(=O)N2CCc3cccc(-c4ccco4)c32)cc1 [Compound 29, 7-furan-2-yl-1-(4-methoxy-benzenesulfonyl)-2,3-dihydro-1H-indole] |
| 127.7 to 129.1 | 100 to 700 | COc1ccc(S(=O)(=O)N2CCc3cccc(-c4cccs4)c32)cc1 [Compound 30, 1-(4-methoxy-benzenesulfonyl)-7-thiophen-2-yl-2,3-dihydro-1H-indole] |
| 178.4 to 179.7 | 100 to 700 | COc1ccc(S(=O)(=O)N2CCc3cccc(-c4ccc(N(C)C)cc4)c32)cc1 [Compound 31, {4-[1-(4-methoxy-benzenesulfonyl)-2,3-dihydro-1H-indol-7-yl]-phenyl}-dimethyl-amine] |
| 202.5 to 204.8 |  | COc1ccc(S(=O)(=O)N2CCc3cccc(-c4cc(OC)c(OC)c(OC)c4)c32)cc1 [Compound 32, 1-(4-methoxy-benzenesulfonyl)-7-(3,4,5-trimethoxy-phenyl)-2,3-dihydro-1H-indole] |
| 177.1 to 178.3 | 100 to 700 | COc1ccc(S(=O)(=O)N2CCc3cccc(-c4ccc(Cl)cc4)c32)cc1 [Compound 33, 7-(4-chloro-phenyl)-1-(4-methoxy-benzenesulfonyl)-2,3-dihydro-1H-indole] |
| 179.7 to 181 | 100 to 700 | COc1ccc(S(=O)(=O)N2CCc3cccc(-c4ccc(C(F)(F)F)cc4)c32)cc1 [Compound 34, 1-(4-methoxy-benzenesulfonyl)-7-(4-trifluoromethyl-phenyl)-2,3-dihydro-1H-indole] |
| 180 to 181.3 |  | COc1ccc(S(=O)(=O)N2CCc3cccc(-c4cccc(F)c4)c32)cc1 [Compound 35, 7-(3-fluoro-phenyl)-1-(4-methoxy-benzenesulfonyl)-2,3-dihydro-1H-indole] |
| 195.1 to 197 | 1 to 99 | COc1ccc(S(=O)(=O)N2CCc3cccc(-c4ccccn4)c32)cc1 [Compound 36, 1-(4-methoxy-benzenesulfonyl)-7-pyridin-2-yl-2,3-dihydro-1H-indole] |
| 177.1 to 178.4 | 1 to 99 | COc1ccc(S(=O)(=O)N2CCc3cccc(-c4ccc([N+](=O)[O-])cc4)c32)cc1 [Compound 37, 1-(4-methoxy-benzenesulfonyl)-7-(4-nitro-phenyl)-2,3-dihydro-1H-indole] |
| 152 to 153 | 1 to 99 | COc1ccc(S(=O)(=O)N2CCc3cccc(-c4ccc(C=O)cc4)c32)cc1 [Compound 38, 4-[1-(4-methoxy-benzenesulfonyl)-2,3-dihydro-1H-indol-7-yl]-benzaldehyde] |
| 200 to 201 |  | COc1ccc(S(=O)(=O)N2CCc3cccc(-c4ccc(C=CC(=O)NO)cc4)c32)cc1 [Compound 41, N-hydroxy-3-{4-[1-(4-methoxy-benzenesulfonyl)-2,3-dihydro-1H-indol-7-yl]-phenyl}-acrylamide] |
| 188.7 to 190.2 |  | NS(=O)(=O)c1ccc(S(=O)(=O)N2CCc3cccc(-c4ccc(F)cc4)c32)cc1 [Compound 42, 4-[7-(4-fluoro-phenyl)-2,3-dihydro-indole-1-sulfonyl]-benzenesulfonamide] |
| 241.7 to 242.9 |  | NS(=O)(=O)c1ccc(S(=O)(=O)N2CCc3cccc(-c4ccncc4)c32)cc1 [Compound 43, 4-(7-pyridin-4-yl-2,3-dihydro-indole-1-sulfonyl)-benzenesulfonamide] |
| 112.2 to 113.7 |  | COc1ccc(S(=O)(=O)n2ccc3ccnc(-c4cccs4)c32)cc1 [Compound 44, 1-(4-methoxy-benzenesulfonyl)-7-thiophen-2-yl-1H-pyrrolo[2,3-c]pyridine] |
| 178.8 to 181 |  | COc1ccc(S(=O)(=O)N2CCc3cccc(-c4cccnc4)c32)cc1 [Compound 46, 1-(4-methoxy-benzenesulfonyl)-7-pyridin-3-yl-2,3-dihydro-1H-indole] |
